Test results: US12383624B2, “Cargo delivery system and composition comprising the same” (SEOUL NATIONAL UNIVERSITY R&DB FOUNDATION, priority 2018, dated 2025)

Key:
[1] = test system: PDE4; assay: target protein degradation by immunoblotting (Experimental Example 6); format: cell-based, human; conditions: HEK293T, 24 hours
Description: (§1) In order to evaluate the target proteion degradation efficacy by Examples 14 to 33 according the disclosure, the following experiment was conducted.
(§2) First, as cell lines primarily expressing the target protein, Human kidney-derived cancer cells, HEK293T (ATCC, CRL-3216), human prostate-derived cancer cells, LNcap (Korean Cell Line Bank, Korean Cell Line Research Foundation, KCLB No. 80018), mouse embryonic fibroblast, MEF (ATCC, SCRC-1008), human cervical cancer cells, HeLa (Korean Cell Line Bank, Korean Cell Line Research Foundation, KCLB No. 10002), human blood-derived cells, K562 (Korean Cell Line Bank, Korean Cell Line Research Foundation, KCLB No. 10243), human blood-derived cells, THP-1 (Korean Cell Line Bank, Korean Cell Line Research Foundation, KCLB No. 40202), human lung-derived cancer cells, A549 (Korean Cell Line Bank, Korean Cell Line Research Foundation, KCLB No. 10185), human breast-derived cancer cells, MCF7 (Korean Cell Line Bank, Korean Cell Line Research Foundation, KCLB No. 30022), human neuroblastoma, SH-SY5Y cell lines (Korean Cell Line Bank, Korean Cell Line Research Foundation, KCLB No. 22266), human pancreatic cancer cells, PANC-1 (Korean Cell Line Bank, Korean Cell Line Research Foundation, KCLB No. 21469) were cultured, respectively, in an incubator maintained at 5% carbon dioxide, using DMEM containing 10% FBS and 1% streptomycin/penicillin, RPMI1640, or MEM medium, and then the respective cells were dispensed in 12-well plate. Additional incubation was performed for 24 hours to ensure that each cell completely fixed to the surface of the plate.
(§3) In order to confirm whether Compounds A to W of Examples 14 to 33 degrade the target protein respectively, the cultured cells were treated with the compound of each example for 24 hours and then collected.
(§4) In this case, HEK293T, which is human kidney-derived cancer cells, LNcap, which is human prostate-derived cancer cells, and MEF cell line, which is mouse embryonic fibroblasts, were treated with Example 14 (Compound A). HEK293T, which is human kidney-derived cancer cells, was treated with Example 15 (Compound B). HEK293T cell line, which is human kidney-derived cancer cells, and HeLa cell line, which is cervical-derived cancer cells, were treated with Example 16 (Compound C). HEK293T cell line, which is human kidney-derived cancer cells, was treated with Example 17 (Compound D). K562 cell line, which is human blood-derived cells, was treated with Example 18 (Compound E). HEK293T cell line, which is human kidney-derived cancer cells, was treated with Example 19 (Compound F). THP-1 cell line, which is human blood-derived cells, was treated with Example 20 (Compound G). A549 cell line, which is human lung-derived cancer cells, was treated with Example 21 (Compound H). A549 cell line, which is human lung-derived cancer cells, was treated with Example 22 (Compound I). MCF7 cell line, which is human breast-derived cancer cells, was treated with Example 23 (Compound J). HEK293T cell line, which is […], was treated with Example 24 (Compound L). SH-SY5Y, which is human neuroblastoma, and HeLa cell line, which is cervical-derived cancer cells, were treated with Example 25 (Compound M). THP-1 cell line, which is human blood-derived cells, was treated with Example 26 (Compound P). SH-SY5Y, which is human neuroblastoma, and HeLa cell line, which is cervical-derived cancer cells, were treated with Example 27 (Compound Q). SH-SY5Y, which is human neuroblastoma, and HeLa cell line, which is cervical-derived cancer cells, were treated with Example 28 (Compound R). HeLa cell line, a human cervical-derived cancer cell, was treated with Example 29 (Compound S). SH-SY5Y cell line, which is human neuroblastoma, was treated with Example 30 (Compound T). SH-SY5Y cell line, which is human neuroblastoma, was treated with Example 31 (Compound U). PANC-1 cell line, which is human pancreatic-derived cancer cells, was treated with Example 32 (Compound V). […]

[2] = test system: p62 and each target protein; assay: p62-mediated delivery of target proteins to autophagy by immunofluorescence staining and confocal microscopy; format: cell-based; conditions: cells cultured 24 hours with compound
Description: In order to confirm the efficacy of P62-mediated delivery of target proteins to autophagy after treatment with the example compounds of the disclosure, immunofluorescence staining was performed by using p62 and each target protein as markers. The cover glass was placed on a 24-well plate for immunofluorescence staining, cell lines primarily expressing the target protein or gene recombinant cell lines were cultured. The cells were dispensed and cultured 24 hours, and then treated with Example 1 (ATCRET-1104), Example 5 (Anle138b F105), Example 7 (Vinclozolin 2204), Example 8 (PHTPP 1304), Example 9 (Baicalein 2204), Example 10 (Resveratrol 1105), Example Example 11 (BTA-1 1104), Example 30 (Compound T) according to the disclosure, respectively. The cells were further cultured for 24 hours for the action of the compounds, the medium was removed, and the cells were fixed using formaldehyde at room temperature. In order to prevent non-specific staining, the cells were reacted with the blocking solution at room temperature for 1 hour, and then the p62 antibody and target protein antibody diluted at a certain ratio were treated using the block solution, and then reacted at room temperature for 1 hour. […]

[3] = test system: Tau; assay: target protein degradation by immunoblotting (Experimental Example 6); format: cell-based, human; conditions: 24 hours
Description: as §1, §2, §3, §4

[4] = target: T1, p-53 (Homo sapiens, UniProt P04637, R273H); assay: as above; format: cell-based; conditions: PANC-1 cell line, 24 hours
T1 construct: endogenous in cells; host or cells: PANC-1
Description: as §1, §2, §3, §4

[5] = target: T2, ACVR1 (Homo sapiens, UniProt Q04771); assay: as above; format: cell-based; conditions: HEK293T and HeLa cell lines, 24 hours
T2 construct: as cell lines primarily expressing the target protein; endogenous in cells; host or cells: HEK293T, HeLa
T2 sequence (Q04771 21-509): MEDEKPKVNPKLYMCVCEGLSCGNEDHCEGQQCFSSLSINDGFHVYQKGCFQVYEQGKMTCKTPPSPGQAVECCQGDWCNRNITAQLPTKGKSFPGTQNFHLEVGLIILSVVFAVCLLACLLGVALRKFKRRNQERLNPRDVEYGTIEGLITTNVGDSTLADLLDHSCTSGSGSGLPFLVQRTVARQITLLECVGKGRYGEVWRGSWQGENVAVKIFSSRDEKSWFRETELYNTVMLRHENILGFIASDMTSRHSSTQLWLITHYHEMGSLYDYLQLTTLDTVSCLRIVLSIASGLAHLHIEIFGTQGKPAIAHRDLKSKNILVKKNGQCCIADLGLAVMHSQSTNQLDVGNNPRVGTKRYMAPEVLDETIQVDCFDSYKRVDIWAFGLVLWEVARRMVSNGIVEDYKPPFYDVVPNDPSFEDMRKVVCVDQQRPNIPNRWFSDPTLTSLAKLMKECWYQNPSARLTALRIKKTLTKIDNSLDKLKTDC
Description: as §1, §2, §3, §4

[6] = target: T3, Desmin Mut(L385P) (Homo sapiens, UniProt P17661, L385P); assay: as above; format: cell-based; conditions: SH-SY5Y and HeLa cell lines treated, 24 hours
T3 construct: expressed in transfected cells; host or cells: HeLa (Compound S); SH-SY5Y or HeLa (Compounds M, Q, R)
T3 sequence (P17661 whole entry L385P): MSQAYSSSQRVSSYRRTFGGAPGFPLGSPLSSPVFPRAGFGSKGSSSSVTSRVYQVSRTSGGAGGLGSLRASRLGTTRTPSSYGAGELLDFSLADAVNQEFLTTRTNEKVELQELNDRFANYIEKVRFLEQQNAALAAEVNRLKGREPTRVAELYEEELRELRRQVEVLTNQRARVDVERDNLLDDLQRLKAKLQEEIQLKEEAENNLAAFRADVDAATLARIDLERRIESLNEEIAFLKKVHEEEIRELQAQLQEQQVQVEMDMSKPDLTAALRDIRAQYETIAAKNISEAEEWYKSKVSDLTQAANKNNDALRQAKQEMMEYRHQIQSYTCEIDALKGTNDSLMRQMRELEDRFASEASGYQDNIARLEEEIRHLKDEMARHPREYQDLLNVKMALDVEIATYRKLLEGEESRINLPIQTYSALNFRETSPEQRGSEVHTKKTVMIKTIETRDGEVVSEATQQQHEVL
Description: as §1, §2, §3, §4

[7] = target: T4, α-synuclein(A53T) (Homo sapiens, UniProt P37840, A53T); assay: as above; format: cell-based; conditions: SH-SY5Y and HeLa cell lines treated, 24 hours
T4 construct: expressed in transfected cells; host or cells: SH-SY5Y (Compound U); SH-SY5Y or HeLa (Compound M)
Description: as §1, §2, §3, §4

[8] = test system: BRD2; assay: as above; format: cell-based, human, mouse; conditions: HEK293T, LNcap and MEF cell lines, 24 hours
Description: as §1, §2, §3
(§5) In this case, HEK293T, which is human kidney-derived cancer cells, LNcap, which is human prostate-derived cancer cells, and MEF cell line, which is mouse embryonic fibroblasts, were treated with Example 14 (Compound A). […]

[9] = test system: BRD3; assay: as above; format: cell-based, human, mouse; conditions: HEK293T, LNcap and MEF cell lines, 24 hours
Description: as §1, §2, §3, §5

[10] = test system: BRD4; assay: as above; format: cell-based, human, mouse; conditions: HEK293T, LNcap and MEF cell lines, 24 hours
Description: as §1, §2, §3, §5

[11] = target: T5, Chk1 (Homo sapiens, UniProt O14757); assay: as above; format: cell-based; conditions: HEK293T cell line, 24 hours
T5 construct: as cell lines primarily expressing the target protein; endogenous in cells; host or cells: HEK293T
T5 sequence (O14757 whole entry): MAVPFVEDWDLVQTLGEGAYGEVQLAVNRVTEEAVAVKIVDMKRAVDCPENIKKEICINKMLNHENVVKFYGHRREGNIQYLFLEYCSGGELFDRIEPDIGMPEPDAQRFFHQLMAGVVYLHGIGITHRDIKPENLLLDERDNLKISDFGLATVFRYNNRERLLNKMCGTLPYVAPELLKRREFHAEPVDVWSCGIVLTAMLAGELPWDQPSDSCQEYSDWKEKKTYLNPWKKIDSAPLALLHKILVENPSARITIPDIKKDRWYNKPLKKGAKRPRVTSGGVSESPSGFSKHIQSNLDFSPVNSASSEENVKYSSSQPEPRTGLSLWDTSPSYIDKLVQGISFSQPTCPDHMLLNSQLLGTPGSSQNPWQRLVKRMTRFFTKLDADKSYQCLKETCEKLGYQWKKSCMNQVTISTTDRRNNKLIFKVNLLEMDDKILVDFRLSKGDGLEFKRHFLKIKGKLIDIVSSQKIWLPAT
Description: as §1, §2, §3, §4

Compound: COc1ccc([C@]2(C#N)CC[C@@H](C(=O)NCCOCCOCCNCc3ccc(OCc4ccccc4)c(OCc4ccccc4)c3)CC2)cc1OC1CCCC1 [Example 15, (1s,4s)-N-(2-(2-(2-((3,4-bis(benzyloxy)benzyl)amino)ethoxy)ethoxy)ethyl)-4-cyano-4-(3-(cyclopentyloxy)-4-methoxyphenyl)cyclohexane-1-carboxamide]
- degradation of target protein PDE4 (decrease in level vs Control) [1]: can be degraded

Compound: O=C(CCCc1ccccc1)NCCOCCOCCOCCNC[C@@H](O)COc1cccc(OCc2ccc(F)cc2)c1 [Example 30, (R)—N-(15-(3-((4-fluorobenzyl)oxy)phenoxy)-14-hydroxy-3,6,9-trioxa-12-azapentadecyl)-4-phenylbutanamide]
- intracellular puncta formation of p62 proteins and of target proteins, and local co-existence thereof [2]: increase gradually
- degradation of target protein Tau (decrease in level vs Control) ([3]; SH-SY5Y cell line): can be degraded

Compound: CN(CCOCCOCCOCCNC[C@@H](O)COc1ccc(OCc2ccc(F)cc2)c(OCc2ccc(F)cc2)c1)c1ccc2nc3ccc(=[N+](C)C)cc-3sc2c1 [Example 32, (R)—N-(7-((15-(3,4-bis((4-fluorobenzyl)oxy)phenoxy)-14-hydroxy-3,6,9-trioxa-12-azapentadecyl) (methyl)amino)-3H-phenothiazin-3-ylidene)-N-methylmethanaminium 2,2,2-trifluoroacetate]
- degradation of target protein p-53 (decrease in level vs Control) [4]: can be degraded

Compound: O[C@H](CNCCOCCOCCN1CCN(c2ccc(-c3cnc4c(-c5cccc6ncccc56)cnn4c3)cc2)CC1)COc1cccc(OCCc2ccccc2)c1 [Example 16, (R)-1-(3-phenethoxyphenoxy)-3-((2-(2-(2-(4-(4-(3-(quinolin-5-yl)pyrazolo[1,5-a]pyrimidin-6-yl)phenyl)piperazin-1-yl)ethoxy)ethoxy)ethyl)amino)propan-2-ol]
- degradation of target protein ACVR1 (decrease in level vs Control) [5]: can be degraded

Compound: O=C(c1cc(-c2cc3c(cc2C(=O)N2Cc4ccccc4C[C@H]2CN2CCN(CCOCCOCCOCCOCCNCc4ccc(OCc5ccccc5)c(OCCc5ccccc5)c4)CC2)OCO3)n2c1CCCC2)N(c1ccccc1)c1ccc(O)cc1 [Example 25, (S)-3-(6-(3-((4-(1-(4-(benzyloxy)-3-phenethoxyphenyl)-5,8,11,14-tetraoxa-2-azahexadecan-16-yl)piperazin-1-yl)methyl)-1,2,3,4-tetrahydroisoquinoline-2-carbonyl)benzo[d][1,3]dioxol-5-yl)-N-(4-hydroxyphenyl)-N-phenyl-5,6,7,8-tetrahydroindolizine-1-carboxamide]
- degradation of target protein Tau (decrease in level vs Control) ([3]; SH-SY5Y and HeLa cell lines treated): can be degraded
- degradation of target protein Desmin Mut(L385P) (decrease in level vs Control) [6]: can be degraded
- degradation of target protein α-synuclein(A53T) (decrease in level vs Control) [7]: can be degraded

Compound: CN(CCOCCOCCOCCNC[C@@H](O)COc1cccc(OCc2ccc(F)cc2)c1)c1ccc2nc3ccc(=[N+](C)C)cc-3sc2c1.O=C([O-])C(F)(F)F [Example 33, (R)—N-(7-((15-(3-((4-fluorobenzyl)oxy)phenoxy)-14-hydroxy-3,6,9-trioxa-12-azapentadecyl) (methyl)amino)-3H-phenothiazin-3-ylidene)-N-methylmethanaminium 2,2,2-trifluoroacetate]
- degradation of target protein p-53 (decrease in level vs Control) [4]: can be degraded

Compound: Cc1sc2c(c1C)C(c1ccc(Cl)cc1)=N[C@@H](CC(=O)NCCOCCOCCNC[C@@H](O)COc1ccc(OCc3ccccc3)c(OCc3ccccc3)c1)c1nnc(C)n1-2 [Example 14, N-(2-(2-(2-(((R)-3-(3,4-bis(benzyloxy)phenoxy)-2-hydroxypropyl)amino)ethoxy)ethoxy)ethyl)-2-((S)-4-(4-chlorophenyl)-2,3,9-trimethyl-6H-thieno[3,2-f][1,2,4]triazolo[4,3-a][1,4]diazepin-6-yl)acetamide]
- degradation of target protein BRD2 (decrease in level vs Control) [8]: can be degraded
- degradation of target protein BRD3 (decrease in level vs Control) [9]: can be degraded
- degradation of target protein BRD4 (decrease in level vs Control) [10]: can be degraded

Compound: NC(=O)Nc1cc(-c2cccc(F)c2)sc1C(=O)N[C@H]1CCCN(CCOCCOCCNC[C@@H](O)COc2cccc(OCCc3ccccc3)c2)C1 [Example 17, 5-(3-fluorophenyl)-N—((S)-1-(2-(2-(2-(((R)-2-hydroxy-3-(3-phenethoxyphenoxy)propyl)amino)ethoxy)ethoxy)ethyl)piperidin-3-yl)-3-ureidothiophene-2-carboxamide]
- degradation of target protein Chk1 (decrease in level vs Control) [11]: can be degraded
